# Values of other authors, collected in patent publication US20130224794A1, “MINERAL-PEPTIDE CHELATES” (NUGEN BIOSCIENCE (TAIWAN) CO., LTD., priority 2009, published 2013).
# Where two headings read alike, the source gives them in different places.
# Conditions: for absorption: qualitative
# [1] = general soybean isoflavones, glucoside vs aglycone form
bioavailability [1] [%],absorption [1],Compound,bioavailability (in vivo) [%]
–,–,O=c1c(-c2ccc(O)cc2)coc2cc(O)ccc12 [daidzein],90
90,fast,O=c1c(-c2ccc(O)cc2)coc2cc(O)cc(O)c12 [genistein],–
20,slow,O=c1c(-c2ccc(O)cc2)coc2cc(O[C@@H]3O[C@H](CO)[C@@H](O)[C@H](O)[C@H]3O)cc(O)c12 [genistin],–

Compound,bioavailability [1] [%],absorption [1],bioavailability (in vivo) [%]
O=c1c(-c2ccc(O)cc2)coc2cc(O[C@@H]3O[C@H](CO)[C@@H](O)[C@H](O)[C@H]3O)ccc12 [daidzin],20,slow,–
